Assay results from patent US6251854A, “N-methyl-d-aspartate receptor channel blockers and method for identifying such” (priority 1999, dated 2001).
“Also recorded” adds a separate entry of the source. Where a name gives a salt, the structure may show the parent alone. Read-outs that look alike come from different tables or passages of the source. Non-standard residues stand in square brackets, D forms with d. Residues, ends and D or L forms follow the SMILES beside them.

Assays:
[1] = target: T1, human NR1-NR2A NMDA receptor subunits (Homo sapiens, UniProt Q05586+Q12879); assay: amphibian oocyte current blockade assay (agonist-evoked currents); assay type: cell-based; conditions: for potency rank as NMDA blocker (FIG. 1): unacetylated peptides; for selectivity for NMDA receptor channels: versus non-NMDA glutamate receptors
T1 construct: expressed in transfected cells; host or cells: Xenopus laevis oocytes
Procedure: Briefly, in the amphibian oocyte current blockade assay, human NMDA receptors are expressed in the oocytes. The receptors are stimulated in the cells by NMDA agonists. Agonist-induced current is the control against which current blockade levels achieved by incubating the oocytes with candidate NMDA blockers are measured.
(A) NMDA specific receptor channel blocking peptides ("NMDA blockers") were identified by screening synthetic combinatorial libraries (SCL) (see e.g., the library and peptide synthesis methods described in Ostresh, et al., Meth Enzymol (1996) 267:220-34, incorporated herein by reference) and assaying for blockade of agonist-evoked currents by the human NR1-NR2A NMDA receptor subunits expressed in amphibian (Xenopus laevis) oocytes (see, for example, the assay method described in Ferrer-Monteil and Montal, METHODS:A Companion to Methods in Enzymology (1994) 6:60-68, incorporated herein by reference).
(D) The compounds prepared in part (B) above were examined for activity against human brain NMDA receptors (composed of NR1 and NR2A subunits) expressed in oocytes. Ionic currents were activated by 200 μM L-glutamate (L-GIu) 20 μM glycine (Gly), at a holding potential Vh =[…]. Ba^2+ /flufenamic Ringer solution was supplemented with agonist and compounds of the invention, and blockade activity determined for each compound.
An example of how the assay method is performed follows, with reference to FIG. 5.

[2] = system: cultured hippocampal neurons; assay: hippocampal neuronal cell death model (NMDA excitotoxicity); assay type: cell-based, mammalian; conditions: neurons exposed to 200 μM NMDA for 20 minutes (FIG. 3)
Text: In addition to approved clinical trials of the inventive compounds in humans, their efficacy can be confirmed in various known animal models for cerebral impairments associated with NMDA receptor pathology, such as the rat ischemia model (e.g., Seif, et al., Eur J Pharmacol (1990) 185:19-24 and Block and Schwara, Neurosci Lett (1996) 208:41-44). Useful in vitro models for testing neuroprotective drug effects in cerebral neuronal cells are also known and include the chick embryo hypoxia model (e.g., Krieglstein, et al., J Pharmacol Meth (1988) 20:39-46) and the mammalian hippocampal neuronal system in which the inventive compounds were tested (e.g., Schinder, et al., supra). These references are each incorporated by reference to illustrate knowledge in the art concerning models of cerebral dysfunction. Those of ordinary skill in the art will be familiar with, or can readily ascertain, other suitable models for use in testing the compounds of the invention.
Testing of the NMDA blockers of the invention in a hippocampal cell model for neurodysfunction (using the method described in Schinder, et al., J Neurosci (1996) 16:6125-33, incorporated herein by reference) yielded surprising results. Specifically, the NMDA blockers of the invention exert a substantial protective effect against cell death induced by exposure of cultured hippocampal neurons to glutamate agonists in the described model of neuronal cell death due to NMDA receptor dysfunction. In this model, neurons exposed to 200 μM NMDA for 20 minutes display extensive death that can be prevented by open channel blockers such as MK-801 or memantine (FIG. 3). This in vitro paradigm of excitotoxicity provides an assay of neuroprotection (see e.g., Schinder et al., supra and Deshpande, et al., Arch Toxicol, 69:384-390).

[3] = target: T2, AMPA-receptor subunit GluR1 (Homo sapiens, UniProt P42261); assay: current blockade at non-NMDA glutamate receptor channels in amphibian oocytes; assay type: cell-based
T2 construct: expressed in transfected cells; host or cells: amphibian oocytes
Text: FIG. 1 is a bar graph which depicts the extent of current blockade achieved by various peptides of the invention acting on NMDA receptors ("NMDAR", solid bars) and glutamate receptors of the AMPA-receptor subunit GluR1 type ("GluR1", shaded bars) in amphibian oocytes. Each tested peptide is identified by sequence and test number along the bottom axis of the graph. Current blockade is expressed as a function of the extent of current reduction as compared to current produced in control amphibian oocytes.
(B) To examine the specificity of the blockade activity, the activity of the peptides on glutamate receptor channels of the non-NMDA subtype, specifically, the AMPA-receptor subunit GluR1, was tested.

[4] = Table 2, bicyclic compounds, 200 μM L-glutamate 20 μM glycine, Vh = −80 mV, blocked response 1-(Icmpd/Iagonist), read-out: IC50 (μM) Inhibitory Concentrations

T1 sequence (Q12879 23-1464, other chains not shown): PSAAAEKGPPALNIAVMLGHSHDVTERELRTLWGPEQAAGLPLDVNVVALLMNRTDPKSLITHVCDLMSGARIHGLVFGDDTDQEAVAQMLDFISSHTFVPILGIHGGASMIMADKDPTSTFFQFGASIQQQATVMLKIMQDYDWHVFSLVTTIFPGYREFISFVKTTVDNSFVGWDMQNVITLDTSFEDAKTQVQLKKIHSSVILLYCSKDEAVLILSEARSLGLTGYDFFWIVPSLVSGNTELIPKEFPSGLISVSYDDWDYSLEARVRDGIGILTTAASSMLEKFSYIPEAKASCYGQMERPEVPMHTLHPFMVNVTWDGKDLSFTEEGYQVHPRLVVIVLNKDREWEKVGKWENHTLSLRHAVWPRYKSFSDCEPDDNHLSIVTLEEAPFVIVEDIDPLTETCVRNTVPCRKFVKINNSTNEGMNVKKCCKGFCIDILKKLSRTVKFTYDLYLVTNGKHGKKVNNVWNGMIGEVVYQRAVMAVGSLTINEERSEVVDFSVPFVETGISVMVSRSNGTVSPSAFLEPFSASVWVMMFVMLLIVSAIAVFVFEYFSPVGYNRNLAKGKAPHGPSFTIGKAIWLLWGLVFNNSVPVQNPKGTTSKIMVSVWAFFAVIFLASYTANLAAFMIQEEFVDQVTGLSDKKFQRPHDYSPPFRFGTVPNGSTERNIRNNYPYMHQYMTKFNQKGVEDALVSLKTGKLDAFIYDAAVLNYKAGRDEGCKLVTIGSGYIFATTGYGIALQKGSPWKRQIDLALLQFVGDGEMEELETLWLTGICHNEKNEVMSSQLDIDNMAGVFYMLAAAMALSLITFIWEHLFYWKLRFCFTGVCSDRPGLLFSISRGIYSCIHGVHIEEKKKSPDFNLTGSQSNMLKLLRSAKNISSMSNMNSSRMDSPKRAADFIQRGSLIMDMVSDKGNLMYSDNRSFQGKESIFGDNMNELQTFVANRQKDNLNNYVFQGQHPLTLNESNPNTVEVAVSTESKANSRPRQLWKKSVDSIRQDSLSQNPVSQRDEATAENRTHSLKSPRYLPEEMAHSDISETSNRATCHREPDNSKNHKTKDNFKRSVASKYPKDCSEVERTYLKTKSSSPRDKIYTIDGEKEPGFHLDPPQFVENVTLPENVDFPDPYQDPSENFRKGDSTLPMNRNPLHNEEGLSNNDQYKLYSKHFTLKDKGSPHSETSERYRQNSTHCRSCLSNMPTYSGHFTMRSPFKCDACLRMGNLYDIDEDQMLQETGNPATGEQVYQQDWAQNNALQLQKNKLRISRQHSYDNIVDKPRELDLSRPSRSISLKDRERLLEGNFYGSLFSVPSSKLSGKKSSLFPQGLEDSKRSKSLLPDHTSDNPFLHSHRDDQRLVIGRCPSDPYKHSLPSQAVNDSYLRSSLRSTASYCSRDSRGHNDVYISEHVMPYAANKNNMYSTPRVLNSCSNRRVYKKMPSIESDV
T2 sequence (P42261 19-906): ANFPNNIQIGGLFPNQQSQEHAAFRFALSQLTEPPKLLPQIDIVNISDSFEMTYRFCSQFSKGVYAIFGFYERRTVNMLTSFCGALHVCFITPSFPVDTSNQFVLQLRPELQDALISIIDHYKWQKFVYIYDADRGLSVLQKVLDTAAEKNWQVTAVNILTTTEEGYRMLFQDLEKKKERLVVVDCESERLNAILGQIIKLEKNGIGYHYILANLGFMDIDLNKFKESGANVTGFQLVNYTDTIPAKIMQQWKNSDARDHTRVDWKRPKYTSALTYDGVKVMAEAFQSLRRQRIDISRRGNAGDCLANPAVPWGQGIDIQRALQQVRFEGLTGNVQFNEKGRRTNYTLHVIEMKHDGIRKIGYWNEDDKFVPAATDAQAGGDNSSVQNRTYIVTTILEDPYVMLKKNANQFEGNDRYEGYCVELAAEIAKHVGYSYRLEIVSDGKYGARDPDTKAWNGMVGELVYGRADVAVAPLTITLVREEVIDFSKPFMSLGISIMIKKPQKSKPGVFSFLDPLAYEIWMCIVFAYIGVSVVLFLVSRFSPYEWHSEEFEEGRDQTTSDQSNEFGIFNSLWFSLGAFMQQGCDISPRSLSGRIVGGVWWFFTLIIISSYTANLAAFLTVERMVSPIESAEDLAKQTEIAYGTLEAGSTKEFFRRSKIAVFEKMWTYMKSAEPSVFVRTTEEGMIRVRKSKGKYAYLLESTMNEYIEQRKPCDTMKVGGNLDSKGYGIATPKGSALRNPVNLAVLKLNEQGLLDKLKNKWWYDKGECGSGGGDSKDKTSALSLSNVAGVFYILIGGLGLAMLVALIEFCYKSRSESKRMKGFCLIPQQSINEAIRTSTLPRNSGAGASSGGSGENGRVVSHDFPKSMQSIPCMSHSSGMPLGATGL

“2H-3-(3-guanidinopropyl)-7-(3-guanidinopropyl)-8-(3-methylbutyl)diazolidine[1,2-b]dihydroimidazole” gave an IC50 [1, 4] of 4.2 µM.
Work on “2H-3-(3-guanidinopropyl)-7-(but-2-yl)-8-(3-methyl-butyl)diazolidine[1,2-b]dihydroimidazole” yielded an IC50 [1, 4] of 11.8 µM.
For “2H-3-(4-fluorobenzyl)-7-(3-guanidinopropyl)-8-(3-methylbutyl)diazolidine[1,2-b]dihydroimidazole”, the IC50 [1, 4] was 6.1 µM.
For “2H-3-(4-fluorobenzyl)-7-(but-2-yl)-8-(3-methyl-butyl)diazolidine[1,2-b]dihydroimidazole”, the IC50 [1, 4] was 1.2 µM.
Work on “2H-3-(4-fluorobenzyl)-7-(t-butyl)-8-(3-methyl-butyl)diazolidine[1,2-b]dihydroimidazole” yielded an IC50 [1, 4] of 2.2 µM.
In the case of C[C@]12N[C@H](Cc3ccccc31)c1ccccc12 [MK-801, reference compound], the “protection of neurons from excitotoxic cell death” value (“protection of neurons” for short) [2] is reported as “prevented”.
With N=C(N)NCCC[C@H](NC(=O)[C@H](CCCNC(=N)N)NC(=O)[C@H](CCCNC(=N)N)NC(=O)[C@H](CCCNC(=N)N)NC(=O)[C@H](CCCNC(=N)N)NC(=O)[C@@H](N)CCCNC(=N)N)C(N)=O [RRRRRR] the IC50 [1] was 0.5 ± 0.1 µM and the “protection of neurons” value [2] was “protected neurons from excitotoxic cell death”.
With CC12CC3CC(C)(C1)CC(N)(C3)C2 [memantine, 1-amino-3,5-dimethyladmantane hydrochloride, reference compound] the “protection of neurons” value [2] was “prevented”.
CC(C)C[C@@H](NC(=O)[C@@H](Cc1ccc(O)cc1)NC(=O)[C@H](N)CCCNC(=N)N)C(=O)N[C@H](Cc1ccccc1)C(=O)N[C@H](CCCNC(=N)N)C(=O)N[C@H](CCCNC(=N)N)C(N)=O [rylfrr] (H-[dR][dY][dL][dF][dR][dR]-NH2) was tested, and the IC50 [1] was 27 ± 4 µM.
In the case of “H-RRRRWW-NH2 (C-terminus assumed) [RRRRWW]”, the IC50 [1] is reported as 0.1 µM, the “current blockade at a steady concentration compared with the same concentration of memantine (FIG. 2)” value [1] is reported as “comparable” and the “potency rank as NMDA blocker (FIG. 1)” value [1] is reported as “most potent”. The “selectivity for NMDA receptor channels” value [1] was “selective for NMDA receptor channels”, the “blockade effect on non-NMDA glutamate receptors” value [3] was “no blockade effect” and the “protection of neurons” value [2] was “prevented neuronal cell death”.
RRCRWW was tested, and the “selectivity for NMDA receptor channels” value [1] was “selective for NMDA receptor channels”, the “blockade effect on non-NMDA glutamate receptors” value [3] was “no blockade effect” and the “protection of neurons” value [2] was “prevented neuronal cell death”.
With RRRCRW the “potency rank as NMDA blocker (FIG. 1)” value [1] was “most potent”.
RRRCWW was tested, and the “sensitivity of AMPA receptor channels to the peptides (FIG. 1)” value ([3]; set result: weakly sensitive) was “excepting”.
RRRRRW was tested, and the “current blockade at a steady concentration compared with the same concentration of memantine (FIG. 2)” value [1] was “comparable”, the “effect on evoked inward currents upon perfusion (FIG. 5)” value ([1]; 200 μM L-glutamate/20 μM glycine) was “sharply attenuated” and the “increase of blockade efficacy by a C-terminal tryptophan (Ki RRRRRR vs RRRRRW)” value ([1]; compared with RRRRRR (#111)) was 1000 fold. The “potency rank as NMDA blocker (FIG. 1)” value [1] was “most potent”, the “selectivity for NMDA receptor channels” value [1] was “selective for NMDA receptor channels” and the “blockade effect on non-NMDA glutamate receptors” value [3] was “no blockade effect”. For the same compound, the “protection of neurons” value [2] was “prevented neuronal cell death; also recorded: protected neurons from excitotoxic cell death”.
In the case of RRRRW, the “protection of neurons” value [2] is reported as “protected neurons from excitotoxic cell death”.
